In patent US20240116985A1, “STAPLED PEPTIDES AND METHODS THEREOF” (priority 2020, published 2024):
pIC50: −log10 of the molar value. Values after ≈ are worked out from the molar mass of the structure shown. Where two headings read alike, the source gives them in different places.

Legend:
[1] = molecular target: T1, full-length beta-Catenin (Uniprot ID P35222) (Homo sapiens, UniProt P35222); experiment: Fluorescence polarization IC50 (beta-catenin / 5FAM-TCF4 10-53 competition); format: binding
T1 construct: 10 nM full-length beta-Catenin (Uniprot ID P35222)
T1 sequence (P35222 1-781): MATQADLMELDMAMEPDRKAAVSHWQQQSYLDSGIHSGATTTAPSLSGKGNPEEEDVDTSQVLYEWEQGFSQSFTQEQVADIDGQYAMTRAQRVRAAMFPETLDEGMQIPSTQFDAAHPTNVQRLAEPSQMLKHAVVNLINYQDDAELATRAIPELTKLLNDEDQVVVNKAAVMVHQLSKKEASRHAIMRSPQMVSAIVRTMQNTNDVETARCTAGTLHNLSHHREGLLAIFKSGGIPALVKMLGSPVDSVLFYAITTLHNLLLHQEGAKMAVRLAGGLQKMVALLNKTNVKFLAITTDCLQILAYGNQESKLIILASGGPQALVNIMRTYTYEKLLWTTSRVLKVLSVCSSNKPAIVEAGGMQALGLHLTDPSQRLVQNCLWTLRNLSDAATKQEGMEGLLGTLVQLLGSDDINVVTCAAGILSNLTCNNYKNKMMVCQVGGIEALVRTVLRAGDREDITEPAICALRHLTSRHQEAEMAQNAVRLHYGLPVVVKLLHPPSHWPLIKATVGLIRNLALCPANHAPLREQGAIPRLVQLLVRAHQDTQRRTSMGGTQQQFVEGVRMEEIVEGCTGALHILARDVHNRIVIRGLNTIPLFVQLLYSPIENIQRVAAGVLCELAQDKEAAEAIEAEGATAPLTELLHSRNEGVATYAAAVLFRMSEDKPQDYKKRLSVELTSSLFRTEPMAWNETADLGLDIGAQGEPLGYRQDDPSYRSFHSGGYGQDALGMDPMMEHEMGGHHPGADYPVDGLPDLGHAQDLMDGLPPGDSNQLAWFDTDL

CHI Log D procedure = format: physicochemical; conditions: for chromatographic logD: pH 7.4, CHI Log D; for CHI Log D: pH 7.4
Solubility in PBS = format: physicochemical
How it was run: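 PBS sample ultracentrifuged; supernatant run on HPLC vs. 50 μM peptide in DMSO standard. Solubility = (PBS peak area / DMSO peak area) × 50 uM.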

[2] = fluorescence polarization, read-out: beta-Catenin FP IC50

pIC50 [1, 2] | chromatographic logD (CHI Log D procedure) | Solubility (Solubility in PBS; Solubility (uM)) | pIC50 ([1]; Table E2-1, read-out: beta-Catenin FP IC50) | Solubility (Solubility in PBS) | pIC50 ([1]; read-out: FP EC50) | CHI Log D (CHI Log D procedure) | pIC50 ([1]; read-out: beta-Catenin FP IC50) | Structure (SMILES)
5.30 | 2.87 | 11 µM (≈ 20.2 µg/mL) | – | – | – | – | – | CCCNC(=O)C[C@@H]1NC(=O)C2(CCCC=CCCCCCC[C@@](C)(C(=O)N[C@@H](Cc3ccccc3)C(=O)N[C@@H](Cc3csc4ccccc34)C(=O)N[C@@H](CCC(N)=O)C(N)=O)NC(=O)[C@H](C(C)C)NC(=O)[C@H](Cc3ccccc3)NC(=O)[C@H](C)NC(=O)[C@H](C)NC(=O)[C@H](CC(=O)O)NC1=O)CCCC=CC[C@]1(CCCN1C(C)=O)C(=O)N[C@@H](CC(=O)O)C(=O)N[C@@H](C)C(=O)N2 (stereo partly drawn) [I-537, Ac-PL3-Asp-Ala-B5-[NHnPr]AsnR-Asp-Ala-Ala-Phe-Val-S8-Phe-BztA-Gln-NH2]
7.19 | 2.22 | 18 µM (≈ 34.5 µg/mL) | – | – | – | – | – | CC(=O)N1CCC[C@]12CC=CCCCC1(CCCC=CCCCCCC[C@@](C)(C(=O)N[C@@H](Cc3ccccc3)C(=O)N[C@@H](Cc3csc4ccccc34)C(=O)N[C@@H](Cc3c[nH]cn3)C(N)=O)NC(=O)[C@H](CCC(N)=O)NC(=O)[C@H](Cc3ccccc3)NC(=O)[C@H](C)NC(=O)[C@H](C)NC(=O)[C@H](CCC(=O)O)NC(=O)[C@H](CC(=O)O)NC1=O)NC(=O)[C@H](CC(F)(F)F)NC(=O)[C@H](CC(=O)O)NC2=O (stereo partly drawn) [I-504, Ac-PL3-Asp-F3CA-B5-Asp-Glu-Ala-Ala-Phe-Gln-S8-Phe-BztA-His-NH2]
– | 2.07 | – | 7.23 | 50 µM (≈ 90 µg/mL) | – | – | – | CC(=O)N1CCC[C@]12CC=CCCCC1(CCCC=CCCCCCC[C@@](C)(C(=O)N[C@@H](Cc3ccccc3)C(=O)N[C@@H](Cc3csc4ccccc34)C(=O)N[C@@H](CCC(N)=O)C(N)=O)NC(=O)[C@H]([C@@H](C)O)NC(=O)[C@H](Cc3ccccc3)NC(=O)[C@H](C)NC(=O)[C@H](C)NC(=O)[C@H](CC(=O)O)NC(=O)[C@H](CC(=O)O)NC1=O)NC(=O)[C@H](C)NC(=O)[C@H](CC(=O)O)NC2=O (stereo partly drawn) [I-342, Ac-PL3-Asp-Ala-B5-Asp-Asp-Ala-Ala-Phe-Thr-S8-Phe-BztA-Gln-NH2]
6.92 | – | – | – | 39 µM (≈ 71.8 µg/mL) | 6.92 | 2.076 | – | CC[C@@H]1NC(=O)[C@H](CC(=O)O)NC(=O)[C@]2(CC=CCCCC3(CCCC=CCCCCCC[C@@](C)(C(=O)N[C@@H](Cc4ccccc4)C(=O)N[C@@H](Cc4csc5ccccc45)C(=O)N[C@@H](CCC(N)=O)C(N)=O)NC(=O)[C@H](CC(N)=O)NC(=O)[C@H](Cc4ccccc4)NC(=O)[C@H](C)NC(=O)[C@H](C)NC(=O)[C@H](CCC(=O)O)NC(=O)[C@H](CC(=O)O)NC3=O)NC1=O)CCCN2C(C)=O (stereo partly drawn) [I-473, Ac-PL3-Asp-Abu-B5-Asp-Glu-Ala-Ala-Phe-Asn-S8-Phe-BztA-Gln-NH2]
– | – | – | – | 47 µM (≈ 90.7 µg/mL) | 6.78 | 1.76 | 6.78 | CC(=O)N1CCC[C@]12CC=CCCCC1(CCCC=CCOC(=O)N(C)CCC[C@@](C)(C(=O)N[C@@H](Cc3ccsc3)C(=O)N[C@@H](Cc3csc4ccccc34)C(=O)N[C@@H](Cc3c[nH]cn3)C(N)=O)NC(=O)[C@H](CC(N)=O)NC(=O)[C@H](Cc3ccccc3)NC(=O)[C@H](C)NC(=O)[C@H](C)NC(=O)[C@H](CC(=O)O)NC(=O)[C@H](CC(=O)O)NC1=O)NC(=O)[C@H](CC(C)(C)C)NC(=O)[C@H](CC(=O)O)NC2=O (stereo partly drawn) [I-773, Ac-PL3-Asp-Npg-B5-Asp-Asp-Ala-Ala-Phe-Asn-SeN-3Thi-BztA-His-NH2]
– | 1.92 | 46 µM (≈ 100 µg/mL) | – | – | – | – | 8.10 | CC(=O)N1CCC[C@]12CC=CCCCC1(CCCC=CCCCOC(=O)N3CC[C@@](C(=O)N[C@@H](Cc4ccsc4)C(=O)N[C@@H](Cc4csc5ccccc45)C(=O)N[C@@H](CCC(N)=O)C(=O)N[C@@H](CCCCNC(=O)CN4CCOCC4)C(N)=O)(C3)NC(=O)[C@H](CC(N)=O)NC(=O)[C@H](Cc3ccccc3)NC(=O)[C@H](C)NC(=O)[C@H](C)NC(=O)[C@H](CC(=O)O)NC(=O)[C@H](CC(=O)O)NC1=O)NC(=O)[C@H](CC(C)(C)C)NC(=O)[C@H](CC(=O)O)NC2=O (stereo partly drawn) [I-905, Ac-PL3-Asp-Npg-B5-Asp-Asp-Ala-Ala-Phe-Asn-PyrS2-3Thi-BztA-Gln-[Morph Ac]Lys-NH2]
6.83 | – | – | – | 50 µM (≈ 92.4 µg/mL) | 6.83 | 1.97 | – | CC(=O)N1CCC[C@]12CC=CCCCC1(CCCC=CCCCCCC[C@@](C)(C(=O)N[C@@H](Cc3ccccc3)C(=O)N[C@@H](Cc3csc4ccccc34)C(=O)N[C@@H](CCC(N)=O)C(N)=O)NC(=O)[C@H](CCC(N)=O)NC(=O)[C@H](Cc3cccs3)NC(=O)[C@H](C)NC(=O)[C@H](C)NC(=O)[C@H](CCC(=O)O)NC(=O)[C@H](CC(=O)O)NC1=O)NC(=O)[C@H](C)NC(=O)[C@H](CC(=O)O)NC2=O (stereo partly drawn) [I-486, Ac-PL3-Asp-Ala-B5-Asp-Glu-Ala-Ala-2Thi-Gln-S8-Phe-BztA-Gln-NH2]
– | 2.49 | 40 µM (≈ 86.6 µg/mL) | – | – | – | – | 7.42 | CC(=O)N1CCC[C@]12CC=CCCCC1(CCCC=CCCCOC(=O)N3CC[C@@](C(=O)N[C@@H](Cc4ccsc4)C(=O)N[C@@H](Cc4csc5ccccc45)C(=O)N[C@@H](CCC(N)=O)C(N)=O)(C3)NC(=O)[C@H](CC(N)=O)NC(=O)[C@H](Cc3ccccc3)NC(=O)[C@H](CCCCNC(=O)CCC34CC5CC(CC(C5)C3)C4)NC(=O)[C@H](C)NC(=O)[C@H](CC(=O)O)NC(=O)[C@H](CC(=O)O)NC1=O)NC(=O)[C@H](CC(C)(C)C)NC(=O)[C@H](CC(=O)O)NC2=O (stereo partly drawn) [I-901, Ac-PL3-Asp-Npg-B5-Asp-Asp-Ala-[AdamantPro]Lys-Phe-Asn-PyrS2-3Thi-BztA-Gln-NH2]
7.34 | – | – | – | 40 µM (≈ 77 µg/mL) | 7.34 | 2.767 | – | CCCC[C@@H]1NC(=O)[C@H](CCC(=O)O)NC(=O)[C@H](CC(=O)O)NC(=O)C2(CCCC=CCCCCCC[C@@](C)(C(=O)N[C@@H](Cc3ccccc3)C(=O)N[C@@H](Cc3csc4ccccc34)C(=O)N[C@@H](CCC(N)=O)C(N)=O)NC(=O)[C@H](CCC(N)=O)NC(=O)[C@H](Cc3ccccc3)NC(=O)[C@H](C)NC1=O)CCCC=CC[C@]1(CCCN1C(C)=O)C(=O)N[C@@H](CC(=O)O)C(=O)N[C@@H]([C@@H](C)CC)C(=O)N2 (stereo partly drawn) [I-657, Ac-PL3-Asp-Ile-B5-Asp-Glu-nLeu-Ala-Phe-Gln-S8-Phe-BztA-Gln-NH2]
– | 2.4 | 42 µM (≈ 94.2 µg/mL) | – | – | – | – | 7.28 | CC(=O)N1CCC[C@]12CC=CCCCC1(CCCC=CCCCOC(=O)N3CC[C@@](C(=O)N[C@@H](Cc4ccsc4)C(=O)N[C@@H](Cc4csc5ccccc45)C(=O)N[C@@H](CCC(N)=O)C(N)=O)(C3)NC(=O)[C@H](CC(N)=O)NC(=O)[C@H](Cc3ccccc3)NC(=O)[C@H](CCCCNC(=O)CCc3cc(C(F)(F)F)cc(C(F)(F)F)c3)NC(=O)[C@H](C)NC(=O)[C@H](CC(=O)O)NC(=O)[C@H](CC(=O)O)NC1=O)NC(=O)[C@H](CC(C)(C)C)NC(=O)[C@H](CC(=O)O)NC2=O (stereo partly drawn) [I-883, Ac-PL3-Asp-Npg-B5-Asp-Asp-Ala-[35CF3PhPr]Lys-Phe-Asn-PyrS2-3Thi-BztA-Gln-NH2]
7.09 | – | – | – | 38 µM (≈ 66.9 µg/mL) | 7.09 | 2.765 | – | CC(=O)N1CCC[C@]12CC=CCCCC1(CCCC=CCCCCCC[C@@](C)(C(=O)N[C@@H](Cc3ccsc3)C(=O)N[C@@H](Cc3csc4ccccc34)C(N)=O)NC(=O)[C@H](CC(N)=O)NC(=O)[C@H](Cc3ccccc3)NC(=O)[C@H](C)NC(=O)[C@H](C)NC(=O)[C@H](CCC(=O)O)NC(=O)[C@H](CC(=O)O)NC1=O)NC(=O)[C@H](CC(C)(C)C)NC(=O)[C@H](CC(=O)O)NC2=O (stereo partly drawn) [I-718, Ac-PL3-Asp-Npg-B5-Asp-Glu-Ala-Ala-Phe-Asn-S8-3Thi-BztA-NH2]
